Experiment in all cases: Antifungal activity test (in vitro), MIC
Holding throughout (type): cell-based

Experiment [1] relates to Aspergillus fumigatus ATCC 1028. To be noted: ATCC1028. On the procedure:
Minimum inhibitory concentration (MIC) of each of the compounds obtained in Examples 1 to 12 was measured for respective fungi at MOS Pharm Service, by the methods described in Antimicrobial Agents and Chemotherapy, vol. 3, pp. 40-48 (1973), Antimicrobial Agents and Chemotherapy, vol. 33, pp. 215-222 (1989) and Antimicrobial Agents and Chemotherapy, vol. 38, pp. 2362-2368 (1994). The measuring conditions are shown in the following. In this case, Voriconazol was used as a comparative compound.
Aspergillus fumigatus ATCC 1028; Cultured at 28° C. for 2 days using potato dextrose broth, and this was used as a cell suspension.
Each of the compounds of the invention was adjusted to a concentration of 1% by weight using dimethyl sulfoxide (DMSO) and a medium similar to the respective medium used in the above-mentioned fungal culture, having a final concentration of from 0.001 to 100 μg/ml, was prepared. Each of the inoculation cell suspensions prepared by the above-mentioned methods was inoculated onto this agar plate. […] In this connection, Voriconazol was used as the comparative compound C-1.

The subject of experiment [2] is Cryptococcus neoformans ATCC 24067. To be noted: ATCC24067. As for the experimental part: (§1) Minimum inhibitory concentration (MIC) of each of the compounds obtained in Examples 1 to 12 was measured for respective fungi at MOS Pharm Service, by the methods described in Antimicrobial Agents and Chemotherapy, vol. 3, pp. 40-48 (1973), Antimicrobial Agents and Chemotherapy, vol. 33, pp. 215-222 (1989) and Antimicrobial Agents and Chemotherapy, vol. 38, pp. 2362-2368 (1994). The measuring conditions are shown in the following. In this case, Voriconazol was used as a comparative compound. Cryptococcus neoformans ATCC 24067, Pityrosporum ovale ATCC 38593; Cultured at 37° C. for 2 day using fluid Sabouraud medium, and this was used as a cell suspension. Each of the compounds of the invention was adjusted to a concentration of 1% by weight using dimethyl sulfoxide (DMSO) and a medium similar to the respective medium used in the above-mentioned fungal culture, having a final concentration of from 0.001 to 100 μg/ml, was prepared. Each of the inoculation cell suspensions prepared by the above-mentioned methods was inoculated onto this agar plate. […] In this connection, Voriconazol was used as the comparative compound C-1.

Experiment [3] concerns Pityrosporum ovale ATCC 38593. To be noted: Malassezia furfur, ATCC38593. On the procedure:
as §1

The test system of experiment [4] is Microsporum canis ATCC 36299. To be noted: ATCC36299. As for the experimental part: as §1, with “Microsporum canis” for “Cryptococcus neoformans”, “36299;” for “24067, Pityrosporum ovale ATCC 38593;”, “30°” for “37°”, “days” for “day”
Experiment [5] has as its system Trichophyton mentagrophytes ATCC 9533. To be noted: ATCC9533. As for the experimental part: as §1, with “Trichophyton mentagrophytes” for “Cryptococcus neoformans”, “9533;” for “24067, Pityrosporum ovale ATCC 38593;”, “28°” for “37°”, “3 days” for “2 day”
The subject of experiment [6] is Candida albicans ATCC 10231. To be noted: ATCC10231. On the procedure: as §1, with “Candida albicans” for “Cryptococcus neoformans”, “10231 and” for “24067, Pityrosporum ovale”, “44858;” for “38593;”, “20 hours” for “2 day”
Experiment [7] concerns Candida albicans ATCC 44858. To be noted: ATCC44858. As for the experimental part:
as §1, with “Candida albicans” for “Cryptococcus neoformans”, “10231 and” for “24067, Pityrosporum ovale”, “44858;” for “38593;”, “20 hours” for “2 day”

Experiment [8] has as its system Trichophyton rubrum ATCC 10218. To be noted: ATCC10218. On the procedure:
as §1, with “Trichophyton rubrum” for “Cryptococcus neoformans”, “10218;” for “24067, Pityrosporum ovale ATCC 38593;”, “28°” for “37°”, “3 days” for “2 day”

Experiment [9] deals with Aspergillus niger ATCC 8740. To be noted: ATCC8740. On the procedure: as §1, with “Aspergillus niger” for “Cryptococcus neoformans”, “8740;” for “24067, Pityrosporum ovale ATCC 38593;”, “28°” for “37°”, “days” for “day”, “potato dextrose broth,” for “fluid Sabouraud medium,”

Values after ≈ are worked out from the molar mass of the structure shown.

For `C[C@@H](c1ncncc1F)[C@](O)(Cn1cncn1)c1ccc(F)cc1F` [C-1, Voriconazol, reference compound], the MIC in experiment [1] is 0.3 µg/mL (≈ 0.859 µM); in experiment [2] it was 0.1 µg/mL (≈ 0.286 µM); in [3] it was 0.3 µg/mL (≈ 0.859 µM); in experiment [4] it was 3 µg/mL (≈ 8.59 µM); in [5], 0.1 µg/mL (≈ 0.286 µM); in experiment [6], 0.3 µg/mL (≈ 0.859 µM). Moreover, the MIC stood at 0.3 µg/mL (≈ 0.859 µM) in experiment [7], 0.3 µg/mL (≈ 0.859 µM) in experiment [8] and 0.1 µg/mL (≈ 0.286 µM) in experiment [9].

Usually MIC stands for the lowest concentration that inhibits growth of the organism. The low end stands for inhibition by little substance, the high end for a need for much substance.
